Reference: patent US20240285571A1, “METHODS OF TREATING BONE INFECTIONS” (MICROBION CORPORATION, priority 2020, published 2024)
Converted amounts (≈) assume the structure as drawn. Where two headings read alike, the source gives them in different places.

Key:
M. abscessus (MABSC) = assay: MIC against CF isolates (Example 7, Table 18); format: cell-based, Mycobacterium abscessus complex; conditions: Mycobacteroides abscessus
S. aureus ATCC 29213 = conditions: per CLSI M100-S24 or provided by Microbion; cited from earlier work
C. difficile = assay: Agar dilution MIC, anaerobes (Example 5); format: cell-based, Clostridium difficile; conditions: Clostridioides difficile, read-out: MIC
B. fragilis = assay: Agar dilution MIC, anaerobes (Example 5); format: cell-based; conditions: Bacteroides fragilis, ATCC25285; B. fragilis MMX 123 (ATCC 25285); QC; read-out: MIC
E. faecium = assay: Broth microdilution MIC (Example 5); format: cell-based; conditions: E. faecium MMX 485; VRE vanA
Method: (§1) Test and Comparator Agents: The test agents were stored at room temperature until assayed. […] The stock solutions were allowed to stand for at least 1 hr prior to use to auto-sterilize.
(§2) TestMedia: Test media were prepared and stored in accordance with guidelines from CLSI (4, 6, 7).
(§3) Broth Microdilution MC Testing (Aerobic Bacteria and Yeast): The broth microdilution assay method employed for the susceptibility testing of aerobic bacteria (excluding N. gonorrhoeae which was evaluated by agar dilution) and yeast essentially followed the procedures described by CLSI (3, 4, 7, 8) and employed automated liquid handlers to conduct serial dilutions and liquid transfers. […] These would become the ‘mother plates’ from which ‘daughter’ or test plates would be prepared. The drugs (300 μL at 40× the desired top concentration in the test plates) were dispensed into the appropriate well in Column 1 of the mother plates. The Biomek 2000 was used to make serial two-fold dilutions through Column 11 in the “mother plate”. The wells of Column 12 contained no drug and ultimately served as the organism growth control wells.
(§4) The daughter plates were prepared using the Biomek FX which transferred 5 μL of drug solution from each well of a mother plate to the corresponding well of the correct daughter plate in a single step.
(§5) A standardized inoculum of each organism was prepared per CLSI methods (3, 7). Isolated colonies of each test isolate were picked from the primary plate and a suspension was prepared to equal a 0.5 McFarland turbidity standard. Standardized suspensions were then diluted […] (1:100 for yeast, 1:20 for bacteria). After dilution, the inoculum suspensions were then transferred to compartments of sterile reservoirs divided by length (Beckman Coulter), and the Biomek 2000 was used to inoculate all plates. Daughter plates were placed on the Biomek 2000 in reverse orientation so that plates were inoculated from low to high drug concentration.
(§6) The Biomek 2000 delivered 10 μL of standardized inoculum into each well of the appropriate daughter plate for an additional 1:20 dilution.
(§7) Plates were stacked 4 high, covered with a lid on the top plate, placed into plastic bags, and incubated at 35° C. for approximately 24-48 hr for all yeast isolates and 16-24 hr for aerobic bacteria. Plates were viewed from the bottom using a plate viewer. […] MIC endpoints for the test agents and control compounds were read per CLSI criteria (3, 7).

Clostridium sphenoides = assay: MIC of baseline clinical isolates (Example 8); format: cell-based; conditions: Clostridium sphenoides baseline isolates (N′ = 1), central laboratory, mITT
Method: (§8) Microbiology was assessed on Day 1 and at the time of any subsequent surgical procedure at the index site. Samples were collected from the infected bone site or involved tissue adjacent to any implant(s), swabs of the deep infection site, and the superficial tissue/wound closure/sinus tract site. […] Parallel sets of samples were analyzed by the local clinical site laboratory to guide patient antibiotic treatment.

[1] = tested on: non-speciated Anaerococcus; assay: MIC of baseline clinical isolates (Example 8); format: cell-based; conditions: Anaerococcus non-speciated baseline isolates (N′ = 1), central laboratory, mITT
Method: as §8

Anaerococcus murdochii = assay: MIC of baseline clinical isolates (Example 8); format: cell-based; conditions: Anaerococcus murdochii baseline isolates (N′ = 1), central laboratory, mITT
Method: as §8

F. magna = assay: MIC of baseline clinical isolates (Example 8); format: cell-based; conditions: Finegoldia magna baseline isolates (N′ = 4), central laboratory, mITT
Method: as §8

[2] = tested on: Cutibacterium [Propionibacterium] acnes; assay: MIC of baseline clinical isolates (Example 8); format: cell-based; conditions: Cutibacterium (Proprionibacterium) acnes baseline isolates (N′ = 3), central laboratory, mITT
Method: as §8

Actinomyces turicensis = assay: MIC of baseline clinical isolates (Example 8); format: cell-based; conditions: Actinomyces turicensis baseline isolates (N′ = 1), central laboratory, mITT
Method: as §8

Peptoniphilus gorbachii = assay: MIC of baseline clinical isolates (Example 8); format: cell-based; conditions: Peptoniphilus gorbachii baseline isolates (N′ = 1), central laboratory, mITT
Method: as §8

[3] = tested on: non-speciated Corynebacterium; assay: MIC of baseline clinical isolates (Example 8); format: cell-based; conditions: Corynebacterium non-speciated baseline isolates (N′ = 2), central laboratory, mITT
Method: (§9) Microbiology was assessed on Day 1 and at the time of any subsequent surgical procedure at the index site. Samples were collected from the infected bone site or involved tissue adjacent to any implant(s), swabs of the deep infection site, and the superficial tissue/wound closure/sinus tract site. Isolation and identification of aerobic and anerobic bacteria was conducted at a central microbiology laboratory (IHMA, Schaumburg, IL) and susceptibility of the isolates to MBN-101 (BisEDT) and comparator agents was performed per Clinical and Laboratory Standards Institute (CLSI). Parallel sets of samples were analyzed by the local clinical site laboratory to guide patient antibiotic treatment.

Streptococcus oralis = assay: MIC of baseline clinical isolates (Example 8); format: cell-based; conditions: Streptococcus oralis baseline isolates (N′ = 1), central laboratory, mITT
Method: as §9

[4] = tested on: Corynebacterium amycolatum; assay: MIC of baseline clinical isolates (Example 8); format: cell-based; conditions: Corynebacterium amycolatum baseline isolates (N′ = 1), central laboratory, mITT
Method: as §9

[5] = tested on: Corynebacterium resistens; assay: MIC of baseline clinical isolates (Example 8); format: cell-based; conditions: Corynebacterium resistens baseline isolates (N′ = 1), central laboratory, mITT
Method: as §9

Corynebacterium jeikeium = assay: MIC of baseline clinical isolates (Example 8); format: cell-based; conditions: Corynebacterium jeikeium baseline isolates (N′ = 2), central laboratory, mITT
Method: as §9

Dermabacter hominis = assay: MIC of baseline clinical isolates (Example 8); format: cell-based; conditions: Dermabacter hominis baseline isolates (N′ = 1), central laboratory, mITT
Method: as §9

S. pyogenes = assay: Broth microdilution MIC (Example 5); format: cell-based
Method: as §1, §2, §3, §4, §5, §6, §7

S. pneumoniae [6] = assay: Broth microdilution MIC (Example 5); format: cell-based
Method: as §1, §2, §3, §4, §5, §6, §7

S. agalactiae = assay: Broth microdilution MIC (Example 5); format: cell-based
Method: as §1, §2, §3, §4, §5, §6, §7

S. pneumoniae [7] = conditions: S. pneumoniae MMX 6837 (ATCC 49619); cited from earlier work

Molecule: CC[C@H]1OC(=O)[C@H](C)[C@@H](O[C@H]2C[C@@](C)(OC)[C@@H](O)[C@H](C)O2)[C@H](C)[C@@H](O[C@@H]2O[C@H](C)C[C@H](N(C)C)[C@H]2O)[C@](C)(OC)C[C@@H](C)C(=O)[C@H](C)[C@@H](O)[C@]1(C)O [Clarithromycin, reference compound]
- MIC (M. abscessus (MABSC); strain AMT0068-40, M abscessus/massiliense complex): 1 µg/mL (≈ 1.34 µM)
- MIC (M. abscessus (MABSC); strain AMT0119-7, M abscessus/massiliense complex): 1 µg/mL (≈ 1.34 µM)
- MIC, acceptable range (S. aureus ATCC 29213): 0.12 to 0.5 µg/mL
- MIC, expected results (S. aureus ATCC 29213): 0.25 µg/mL (≈ 0.334 µM)

Molecule: CCC[C@@H]1C[C@@H](C(=O)N[C@@H]([C@H]2O[C@H](SC)[C@H](O)[C@@H](O)[C@H]2O)[C@H](C)Cl)N(C)C1 [Clindamycin]
- MIC (C. difficile; ATCC700057, C. difficile MMX 4381 (ATCC 700057), QC, CCI): 4 µg/mL (≈ 9.41 µM)
- MIC (C. difficile; C. difficile MMX 8272, ribotype 255, CCI): 4 µg/mL (≈ 9.41 µM)
- MIC (C. difficile; C. difficile MMX 8279, ribotype 005, CCR): > 64 µg/mL
- MIC (C. difficile; C. difficile MMX 8281, ribotype 010, CCR): > 64 µg/mL
- MIC (C. difficile; NCTC13307, C. difficile MMX 5681 (NCTC 13307), ribotype 012, CCR): > 64 µg/mL
- MIC (C. difficile; NCTC13336, C. difficile MMX 5680 (NCTC 13336), ribotype 027, CCI METR): 4 µg/mL (≈ 9.41 µM)
- MIC (B. fragilis): 1 µg/mL (≈ 2.35 µM)
- MIC (E. faecium): >32 µg/mL

Molecule: CCN1CCN(C(=O)N[C@@H](C(=O)N[C@@H]2C(=O)N3[C@@H]2SC(C)(C)[C@@H]3C(=O)O)c2ccccc2)C(=O)C1=O.C[C@]1(Cn2ccnn2)[C@H](C(=O)O)N2C(=O)C[C@H]2S1(=O)=O [TZP]
- Mean MIC (Clostridium sphenoides): 16.00 µg/mL
- n (% resistant) (Clostridium sphenoides): 0 (0.0) n (%)
- n (% resistant) [1]: 0 (0.0) n (%)
- Mean MIC (Anaerococcus murdochii): 0.50 µg/mL
- n (% resistant) (Anaerococcus murdochii): 0 (0.0) n (%)
- Mean MIC (F. magna): 0.34 µg/mL
- n (% resistant) (F. magna): 0 (0.0) n (%)
- Mean MIC [2]: 0.29 µg/mL
- n (% resistant) [2]: 0 (0.0) n (%)
- Mean MIC (Actinomyces turicensis): 1.00 µg/mL
- n (% resistant) (Actinomyces turicensis): 0 (0.0) n (%)
- Mean MIC (Peptoniphilus gorbachii): 0.03 µg/mL
- n (% resistant) (Peptoniphilus gorbachii): 0 (0.0) n (%)
- Mean MIC [3]: 1.00 µg/mL
- n (% resistant) [3]: 0 (0.0) n (%)
- Mean MIC (Streptococcus oralis): 0.06 µg/mL
- n (% resistant) (Streptococcus oralis): 0 (0.0) n (%)
- Mean MIC [4]: 1.00 µg/mL
- n (% resistant) [4]: 0 (0.0) n (%)
- Mean MIC [5]: 1.00 µg/mL
- n (% resistant) [5]: 0 (0.0) n (%)
- Mean MIC (Corynebacterium jeikeium): 1.00 µg/mL
- n (% resistant) (Corynebacterium jeikeium): 0 (0.0) n (%)
- Mean MIC (Dermabacter hominis): 0.50 µg/mL
- n (% resistant) (Dermabacter hominis): 0 (0.0) n (%)

Molecule: Penicillin
- MIC (S. pyogenes; S. pyogenes MMX 3068, EryR): ≤0.008 µg/mL
- MIC (S. pyogenes; S. pyogenes MMX 3820, ERYR CLIR): ≤0.008 µg/mL
- MIC (S. pyogenes; S. pyogenes MMX 3919, ERYR): ≤0.008 µg/mL
- MIC (S. pyogenes; S. pyogenes MMX 3929, ERYR CCR): ≤0.008 µg/mL
- MIC (S. pyogenes; S. pyogenes MMX 5091, ERYR CCR): ≤0.008 µg/mL
- MIC (S. pneumoniae [6]; S. pneumoniae MMX 880, LevR SXTR CCR EryR PenR): 2 µg/mL
- MIC (S. pneumoniae [6]; S. pneumoniae MMX 937, MemR SXTR CCR EryR PenR): 4 µg/mL
- MIC (S. pneumoniae [6]; S. pneumoniae MMX 3959, CCR EryR): 0.12 µg/mL
- MIC (S. pneumoniae [6]; S. pneumoniae MMX 5440, MemR SXTR CCR EryR PenR): 4 µg/mL
- MIC (S. pneumoniae [6]; S. pneumoniae MMX 5445, MemR SXTR CCR EryR PenR): 4 µg/mL
- MIC (S. pneumoniae [6]; S. pneumoniae MMX 6837 (ATCC 49619), QC): 0.25 µg/mL
- MIC (S. pneumoniae [6]; S. pneumoniae MMX 8133, MemR SXTR CCR EryR PenR): 4 µg/mL
- MIC (S. agalactiae; S. agalactiae MMX 3741, ERYR CCR): 0.03 µg/mL
- MIC (S. agalactiae; S. agalactiae MMX 3743, ERYR CCR): 0.06 µg/mL
- MIC (S. agalactiae; S. agalactiae MMX 4077, ERYR CCR): 0.06 µg/mL
- MIC (S. agalactiae; S. agalactiae MMX 4079, ERYR CCR PenR MEMR): 2 µg/mL
- MIC (S. agalactiae; S. agalactiae MMX 4086, ERYR CCR): 0.06 µg/mL
- CLSI QC range of MIC (S. pneumoniae [7]): (0.25-1) μg/mL

Molecule: CC[C@H]1OC(=O)[C@H](C)[C@@H](O[C@H]2C[C@@](C)(OC)[C@@H](O)[C@H](C)O2)[C@H](C)[C@@H](O[C@@H]2O[C@H](C)C[C@H](N(C)C)[C@H]2O)[C@](C)(O)C[C@@H](C)C(=O)[C@H](C)[C@@H](O)[C@]1(C)O [Erythromycin]
- MIC (E. faecium): >64 µg/mL
- CLSI QC range of MIC (S. pneumoniae [7]): (0.03-0.12) μg/mL
